Experimental data reported in patent US10758541B2, “Formulations of milciclib and therapeutic combinations of the same for use in the treatment of cancer” (Tiziana Life Sciences PLC, priority 2017, dated 2020).
Where two headings read alike, the source gives them in different places.

Assays:
alpha-fetoprotein (AFP) = assay: Serum AFP in orthotopic HCC mouse model; assay type: in vivo, mice; details: milciclib 30 mg/kg, sorafenib 20 mg/kg, oral, vs vehicle
Description: MHCC97H cells were seeded at a density of 500,000 cells/2 mL/well on a 6 well culture plate and incubated overnight at 37° C. in a humidified CO2 incubator. Cells were then treated with 1.3 μM milciclib or vehicle in DMEM/F12+2% FBS for 72 hours. Subsequently, cells were lysed in RIPA buffer, the supernatant was collected and used to perform ELISA assay as per the manufacturer's instructions. In orthotopic HCC mouse model, levels of serum marker alpha-fetoprotein (AFP) were determined on day 0, 6, 12, 18, 24, 30, 36, 42 and 48 using High Range AFP kit as per manufacturer's instructions.
Mouse experiments were performed in accordance with the guidelines approved by the Institutional Animal Care and use committee of Washington Biotechnology Inc (Baltimore, Md.) where the studies were conducted. (FIG. 66) Test agents were dissolved in chremophor/ethanol (1:1) to make a 5× stock solution and diluted in water when used. MHCC97H human liver cells (5×106) in PBS were mixed with 20% Matrigel and then inoculated orthotopically into the right flank of female Balb/c nude mice. Seven days after cell inoculation, the mice were randomly allocated to either the treatment group (n=12) or the control group (n=12) based on the levels of AFP. The daily animal inspection was conducted for general appearance and tumor growth. […]

MHCC97L cells [1] = assay: IC50 values by cell proliferation assay (WST-1); assay type: cell-based; details: Homo sapiens, individual inhibitor, 72 hours
From the text: (§1) See Shailubhai, K et al. “Atiprimod is an inhibitor of cancer cell proliferation and angiogenesis.” J Exp Ther Oncol. 2004; 4: 267-279; and Choudhari et al. “Deactivation of Akt and STAT3 signaling promotes apoptosis, inhibits proliferation, and enhances the sensitivity of hepatocellular carcinoma cells to an anticancer agent, atiprimod” Molecular Cancer Therapeutics. 2007; 6: 112-121. References are incorporated herein in their entireties.
(§2) MHCC97H and MHCC97L (highly metastatic hepatocellular carcinoma cell line, derived from humans)
(§3) Cells (MHCC97H, MHCC97L, and HepG2.2.15) were cultured for 24 hours in 2% FBS and then were trypsinized, resuspended in 2% FBS and seeded in a rat collagen coated 96-well plate at a density of 10,000 cells/100 μl/well, a day before the experiment and cultured at 37° C. in 5% CO2. The cells were treated the next day with milciclib, sorafenib, regorafenib, sunitinib, and lenvatinib, individually or in combination in DMEM/F12+2% FBS+for 72 hours prior to the addition of WST-1 reagent. About 100 μL media was added to control well. After cells had been cultured for 72 hours with different drug concentrations, cells were washed 3 times with sterile 1× Phosphate buffered saline (PBS). To determine cell proliferation by the colorimetric test, 10 μL of WST-1 reagent (Sigma Aldrich, St Louis, Mo.) was added in 100 μL cell culture media and incubated for 2 hours in 5% CO2 at 37° C. At the end of incubation period, the plate was placed on a plate shaker for 1 minute and was monitored using a spectrophotometer at an optical density of 450 nm with a reference wavelength of 600 nm using Tecan F200 and iControl software. IC50 values were determined using GraphPad Prism (GraphPad Software, La Jolla, Calif.). Each experiment was performed in duplicate and repeated 2 times.

[2] = system: MHCC97H human liver cells; assay: Orthotopic tumor induction in athymic nude mice; assay type: in vivo; details: oral, once daily day 12 to 47; milciclib 30 mg/kg/day, sorafenib 20 mg/kg/day; vs vehicle
Description: Mouse experiments were performed in accordance with the guidelines approved by the Institutional Animal Care and use committee of Washington Biotechnology Inc (Baltimore, Md.) where the studies were conducted. (FIG. 66) Test agents were dissolved in chremophor/ethanol (1:1) to make a 5× stock solution and diluted in water when used. MHCC97H human liver cells (5×106) in PBS were mixed with 20% Matrigel and then inoculated orthotopically into the right flank of female Balb/c nude mice. Seven days after cell inoculation, the mice were randomly allocated to either the treatment group (n=12) or the control group (n=12) based on the levels of AFP. The daily animal inspection was conducted for general appearance and tumor growth. Milciclib (30 mg/Kg), sorafenib (20 mg/Kg), milciclib+sorafenib or the corresponding vehicle was given orally to individual mice once daily from day 12 until day 47. After completion of the treatment at day 48, animals were euthanized and blood, liver tissues and tumor were collected for gene expression and mechanistic assays. Liver tumors developed 100% of animals challenged with orthotopic MHCC97H injection.

HepG2.2.15 cells = assay: IC50 values by cell proliferation assay (WST-1); assay type: cell-based; details: Homo sapiens, read-out: HepG2.2.15 IC50
From the text: as §1
HepG2.2.15 cells are derived from the human hepatoblastoma cell line HepG2.
as §3

miR-221 and miR-222 = assay: miRNA isolation and expression analysis of tumor tissues; assay type: in vivo; details: tumor tissues from orally treated mice, vs vehicle
Description: miRNA from athymic nude mice following treatment with vehicle, milciclib, sorafenib, or milciclib+sorafenib was isolated from Total RNA using the TaqMan Advanced miRNA cDNA Synthesis Kit (Thermo Fisher Scientific, Rockford, Ill.) according to the manufacturer's instructions. miRNA-221 and miR-222 quantifications were performed in duplicates using TaqMan Advanced miRNA Assay (Thermo Fisher Scientific, Rockford, Ill.) with a sample dilution of 1:10. The PCR mixture was incubated at 95° C. for 20 seconds, followed by 40 cycles of 95° C. for 3 seconds and 60° C. for 30 seconds. Results were normalized to hsa-miR-192-5p as reference miRNA and the relative gene expression calculated as 2−ΔCT was expressed as fold increase over control samples.
Tumor tissues from mice treated with vehicle, sorafenib, milciclib, milciclib+sorafenib and normal liver tissues from naïve untreated mice were collected and levels of miR-221 and miR-222 were determined. The levels of both of miR-221 and miR-222 were elevated in tumors from vehicle treated mice.

MHCC97H cells [3] = assay: IC50 values by cell proliferation assay (WST-1); assay type: cell-based, human
Description: as §2
as §3, with “After cells had been cultured for 72 hours with different drug concentrations, cells were washed 3 times with sterile 1× Phosphate buffered saline (PBS).” left out

MHCC97L cells [4] = assay: EMT transwell invasion assay; assay type: cell-based, human; details: in combination with milciclib, vs individual treatment, P<0.005
Description: (§4) EMT (Epithelial to Mesenchymal Transition) induction employing kit from R&D systems (Cat # CCM017)
(§5) For transwell invasion assay HCC cells were seeded in the top chamber in 6 well transwell plates (Sigma-Aldrich, St. Louis, Mo.) at a density of 100,000 cells/500 μL/well in standard culture media containing 100× StemXVivo® EMT Inducing Media Supplement (R&D systems, Minneapolis, Minn.) and was incubated overnight at 37° C. in humidified CO2 incubator. Next day, EMT inducing media with or without the test articles was added and incubation was continued for 10 days with media changes every 3 days. On the 10th day, the number of cells migrated to the lower chamber was determined using Bio-Rad (Hercules, Calif.) automatic cell counter. Values obtained were expressed as a percentage of invasion and the cell counts of control cells were considered 100%.
(§6) The invasive potential of cancer cells is dependent on losing epithelial characteristics and acquiring a migratory mesenchymal property referred to as Epithelial to Mesenchymal Transition (EMT).

MHCC97H cells [5] = assay: EMT transwell invasion assay; assay type: cell-based, human; details: in combination with milciclib, vs individual treatment, P<0.005
Description: as §4, §5, §6

[6] = HepG2.2.15, individual inhibitor, 72 hours, WST-1
[7] = Homo sapiens, MHCC97H, 72 h, MHCC97H cells, inhibitor alone (synergy studies), read-out: IC50 (μM) OF KINASE INHIBITORS
[8] = Homo sapiens, MHCC97H, individual inhibitor, 72 hours, WST-1, read-out: MHCC97H IC50
[9] = Homo sapiens, MHCC97H cells, in combination with fixed 1.3 μM milciclib, read-out: IC50 (μM) KINASE INHIBITORS + 1.3 μM MILCICLIB
[10] = Homo sapiens, MHCC97H cells, inhibitor alone (synergy studies), read-out: IC50 (μM) OF KINASE INHIBITORS
[11] = MHCC97H cells, in combination with fixed 1.3 μM milciclib, read-out: IC50 (μM) KINASE INHIBITORS + 1.3 μM MILCICLIB

Row | Structure (SMILES) | serum AFP levels (alpha-fetoprotein (AFP)) | IC50 (MHCC97L cells [1]) [µM] | reducing tumor growth [2] [%] | IC50 (HepG2.2.15 cells; [6]) [µM] | expression of miR-221 and miR-222 (miR-221 and miR-222) | IC50 (MHCC97H cells [3]; [7]) [µM] | IC50 (MHCC97H cells [3]; Homo sapiens, MHCC97H, MHCC97H cells, in combination with fixed 1.3 μM milciclib, read-out: IC50 (μM) KINASE INHIBITORS + 1.3 μM MILCICLIB) [µM] | IC50 (MHCC97H cells [3]; Homo sapiens, MHCC97H, MHCC97H cells, inhibitor alone (synergy studies), read-out: IC50 (μM) OF KINASE INHIBITORS) [µM] | IC50 (MHCC97H cells [3]; [8]) [µM] | invasion potential (MHCC97L cells [4]) | invasion potential (MHCC97H cells [5]) | IC50 (HepG2.2.15 cells; HepG2.2.15, 72 h) [µM] | IC50 (MHCC97H cells [3]; [9]) [µM] | IC50 (MHCC97H cells [3]; [10]) [µM] | IC50 (MHCC97H cells [3]; Homo sapiens, MHCC97H, 72 h, individual inhibitor, 72 hours, WST-1, read-out: MHCC97H IC50) [µM] | IC50 (MHCC97H cells [3]; [11]) [µM] | IC50 (MHCC97H cells [3]; Homo sapiens, 72 h, MHCC97H cells, inhibitor alone (synergy studies), read-out: IC50 (μM) OF KINASE INHIBITORS) [µM]
1 | CNC(=O)c1cc(Oc2ccc(NC(=O)Nc3ccc(Cl)c(C(F)(F)F)c3)cc2)ccn1 [SORAFENIB, sorafenib] | Significantly lower | 8.8 | 21 | 6.48 | modestly reduced | 12 | 6.7 | 12 | 12 | reduced the invasion potential to a greater extent | reduced the invasion potential to a greater extent | – | – | – | – | – | –
2 | COc1cc2nccc(Oc3ccc(NC(=O)NC4CC4)c(Cl)c3)c2cc1C(N)=O [LENVATINIB, lenvatinib] | – | 0.14 | – | – | – | – | – | – | 0.28 | reduced the invasion potential to a greater extent | reduced the invasion potential to a greater extent | 0.24 | 0.12 | 0.28 | – | – | –
3 | CNC(=O)c1cc(Oc2ccc(NC(=O)Nc3ccc(Cl)c(C(F)(F)F)c3)c(F)c2)ccn1 [REGORAFENIB, regorafenib] | – | 3.5 | – | 3.94 | – | – | – | – | 4.7 | reduced the invasion potential to a greater extent | reduced the invasion potential to a greater extent | – | 1.9 | 4.7 | – | – | –
4 | CCN(CC)CCNC(=O)c1c(C)[nH]c(/C=C2\C(=O)Nc3ccc(F)cc32)c1C [SUNITINIB, sunitinib] | – | 8.2 | – | 25.4 | – | 30.4 | – | – | – | – | – | – | – | – | 30.5 | 17.2 | –
5 | CC(=O)c1c(C)c2cnc(Nc3ccc(N4CCNCC4)cn3)nc2n(C2CCCC2)c1=O [PALBOCICLIB, palbociclib] | – | 8.2 | – | – | – | – | – | – | 14.5 | – | – | 11.1 | – | – | – | 6.7 | 14.5
